Measured values as given in ChEMBL document CHEMBL4145665, “Structure-Activity Relationship of Novel and Selective Biaryl-Chroman GPR40 AgoPAMs” (ACS Med Chem Lett, 2018).

What was measured:
[1] = Tmax in Wistar rat at 750 mg/kg administered once daily for 4 days; type: ADME, organism-based; details: in vivo
[2] = target: T1, Free fatty acid receptor 1 (Homo sapiens, UniProt O14842); experiment: Agonist activity at recombinant human GPR40 expressed in HEK293 cells assessed as increase in IP1 accumulation measured after 60 mins in presence of 100% human serum by HTRF assay; type: functional, cell-based
[3] = Effective half life in rhesus monkey at 1 mg/kg, iv or 2 mg/kg, po administered as single dose; type: ADME, organism-based, Macaca mulatta; details: in vivo, read-out: t1/2eff (converted)
[4] = tested on: Rattus norvegicus; experiment: Antidiabetic activity in Goto Kakizaki rats assessed as plasma concentration required for reduction in blood glucose excursion at 3 mg/kg, po pretreated for 1 hr followed by dextrose challenge measured 3 hrs post dose by OGTT; type: functional, organism-based
[5] = Clearance in rhesus monkey at 1 mg/kg, iv or 2 mg/kg, po administered as single dose; type: ADME, organism-based, Macaca mulatta; details: in vivo
[6] = target: Free fatty acid receptor 1 (Rattus norvegicus, UniProt Q8K3T4); experiment: Agonist activity at recombinant rat GPR40 expressed in CHOK1 cells assessed as increase in IP1 accumulation measured after 60 mins by HTRF assay; type: functional, cell-based
[7] = tested on: Rattus norvegicus; experiment: Toxicity in Wistar rat assessed as gross findings at 200 to 750 mg/kg administered once daily for 4 days; type: organism-based; details: in vivo, 96 h
[8] = tested on: Rattus norvegicus; experiment: Antidiabetic activity in Goto Kakizaki rats assessed as inhibition of blood glucose AUC at 30 mg/kg, po pretreated for 1 hr followed by dextrose challenge measured after 20 to 60 mins by OGTT method relative to control; type: functional
[9] = AUC (0 to 24 hrs) in Wistar rat at 200 mg/kg administered once daily for 4 days; type: ADME, organism-based; parameters: dose 200 mg/kg, time < 24 hr; details: in vivo
[10] = Oral bioavailability in Wistar-Han rat at 2 mg/kg administered as single dose; type: ADME, organism-based; details: in vivo
[11] = Fraction unbound in rhesus monkey plasma at 1 mg/kg, iv or 2 mg/kg, po administered as single dose; type: ADME, organism-based, Macaca mulatta
[12] = Effective half life in Beagle dog at 1 mg/kg, iv or 2 mg/kg, po administered as single dose; type: ADME, organism-based, Canis lupus familiaris; details: in vivo, read-out: t1/2eff (converted)
[13] = Intrinsic clearance in Beagle dog hepatocytes; type: ADME, cell-based, Canis lupus familiaris, Hepatocyte; details: read-out: CLH
[14] = tested on: Mus musculus; experiment: Antidiabetic activity in po dosed C57BL/6 mouse assessed as increase in GLP-1 secretion measured after 1 hr; type: functional, organism-based
[15] = AUC (0 to 24 hrs) in Wistar rat at 750 mg/kg administered once daily for 4 days; type: ADME, organism-based; parameters: dose 750 mg/kg, time < 24 hr; details: in vivo
[16] = target: T2, Free fatty acid receptor 4 (Homo sapiens, UniProt Q5NUL3); experiment: Agonist activity at GPR120 (unknown origin); type: functional
T2 sequence (Q5NUL3 whole entry): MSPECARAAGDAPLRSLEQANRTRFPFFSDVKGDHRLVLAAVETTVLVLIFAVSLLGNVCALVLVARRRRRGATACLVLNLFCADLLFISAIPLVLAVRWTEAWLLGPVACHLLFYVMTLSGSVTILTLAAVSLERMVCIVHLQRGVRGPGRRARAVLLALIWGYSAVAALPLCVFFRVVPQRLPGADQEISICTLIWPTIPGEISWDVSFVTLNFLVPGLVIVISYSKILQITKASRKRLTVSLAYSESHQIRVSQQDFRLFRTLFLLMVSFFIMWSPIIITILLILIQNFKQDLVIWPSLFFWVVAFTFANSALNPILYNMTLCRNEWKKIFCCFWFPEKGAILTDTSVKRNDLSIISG

[17] = target: Free fatty acid receptor 1 (Rattus norvegicus) (UniProt Q8K3T4); experiment: Agonist activity at recombinant rat GPR40 expressed in CHOK1 cells assessed as increase in IP1 accumulation measured after 60 mins by HTRF assay relative to AM-1638; type: functional, cell-based
[18] = Tmax in Wistar rat at 200 mg/kg administered once daily for 4 days; type: ADME, organism-based; details: in vivo
[19] = target: Bile salt export pump (Homo sapiens, UniProt O95342); experiment: Inhibition of human BSEP expressed in baculovirus infected Sf9 insect cell membrane vesicles assessed as reduction in ATP-dependent [3H]-taurocholic acid uptake; type: ADME
[20] = tested on: Rattus norvegicus; experiment: Antidiabetic activity in Goto Kakizaki rats assessed as plasma concentration required for reduction in blood glucose excursion at 30 mg/kg, po pretreated for 1 hr followed by dextrose challenge measured 3 hrs post dose by OGTT; type: functional, organism-based
[21] = tested on: Rattus norvegicus; experiment: Antidiabetic activity in Goto Kakizaki rats assessed as inhibition of blood glucose AUC at 0.3 mg/kg, po pretreated for 1 hr followed by dextrose challenge measured after 20 to 60 mins by OGTT method relative to control; type: functional
[22] = tested on: Rattus norvegicus; experiment: Antidiabetic activity in po dosed Goto Kakizaki rats assessed as reduction in blood glucose excursion pretreated for 1 hr followed by dextrose challenge measured after 20 to 60 mins by OGTT method; type: functional; details: read-out: MED
[23] = Lipophilicity, log D of the compound at pH 7 at 100 uM by HPLC method; type: physicochemical; details: buffer
[24] = tested on: Rattus norvegicus; experiment: Toxicity in Wistar rat assessed as mortality at 200 to 750 mg/kg administered once daily for 4 days; type: organism-based; details: in vivo, 96 h
[25] = tested on: Rattus norvegicus; experiment: Toxicity in Wistar rat assessed as change in functional observational battery at 200 to 750 mg/kg administered once daily for 4 days; type: organism-based; details: in vivo, 96 h
[26] = target: T1, Free fatty acid receptor 1; experiment: Agonist activity at recombinant human GPR40 expressed in HEK293 cells assessed as increase in IP1 accumulation measured after 60 mins in presence of 100% human serum by HTRF assay relative to AM-1638; type: functional, cell-based
[27] = target: T1, Free fatty acid receptor 1; experiment: Agonist activity at recombinant human GPR40 expressed in HEK293 cells assessed as increase in IP1 accumulation measured after 60 mins by HTRF assay; type: functional, cell-based
[28] = tested on: Rattus norvegicus; experiment: Antidiabetic activity in Goto Kakizaki rats assessed as inhibition of blood glucose AUC at 3 mg/kg, po pretreated for 1 hr followed by dextrose challenge measured after 20 to 60 mins by OGTT method relative to control; type: functional
[29] = Drug metabolism in human hepatocytes assessed as phenol metabolite formation; type: ADME, cell-based, Hepatocyte
[30] = Intrinsic clearance in rhesus monkey hepatocytes; type: ADME, cell-based, Macaca mulatta, Hepatocyte; details: read-out: CLH
[31] = tested on: Rattus norvegicus; experiment: Antidiabetic activity in Goto Kakizaki rats assessed as plasma concentration required for reduction in blood glucose excursion at 1 mg/kg, po pretreated for 1 hr followed by dextrose challenge measured 3 hrs post dose by OGTT; type: functional, organism-based
[32] = Clearance in Beagle dog at 1 mg/kg, iv or 2 mg/kg, po administered as single dose; type: ADME, organism-based, Canis lupus familiaris; details: in vivo
[33] = tested on: Rattus norvegicus; experiment: Toxicity in Wistar rat assessed as decrease in body weight at 200 mg/kg administered once daily for 4 days relative to control; type: organism-based; parameters: scale not given: the % may be the effect or the level left; details: in vivo, 96 h
[34] = Cmax in Wistar rat at 750 mg/kg administered once daily for 4 days; type: ADME, organism-based; parameters: dose 750 mg/kg; details: in vivo
[35] = Effective half life in Wistar-Han rat at 1 mg/kg, iv or 2 mg/kg, po administered as single dose; type: ADME, organism-based; details: in vivo, read-out: t1/2eff (converted)
[36] = Volume of distribution at steady state in Wistar-Han rat at 1 mg/kg, iv or 2 mg/kg, po administered as single dose; type: ADME, organism-based; details: in vivo, read-out: Vdss
[37] = tested on: Rattus norvegicus; experiment: Antidiabetic activity in Goto Kakizaki rats assessed as plasma concentration required for reduction in blood glucose excursion at 10 mg/kg, po pretreated for 1 hr followed by dextrose challenge measured 3 hrs post dose by OGTT; type: functional, organism-based

T1 sequence (O14842 whole entry): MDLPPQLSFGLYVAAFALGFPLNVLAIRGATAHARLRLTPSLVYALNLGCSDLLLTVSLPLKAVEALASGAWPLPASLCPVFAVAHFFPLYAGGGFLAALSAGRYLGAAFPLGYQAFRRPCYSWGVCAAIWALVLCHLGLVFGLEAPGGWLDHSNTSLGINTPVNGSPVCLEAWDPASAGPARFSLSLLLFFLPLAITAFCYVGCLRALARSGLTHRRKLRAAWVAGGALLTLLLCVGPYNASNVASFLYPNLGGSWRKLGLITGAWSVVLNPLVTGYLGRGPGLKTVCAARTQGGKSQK
Free fatty acid receptor 1 (Rattus norvegicus), sequence (Q8K3T4 whole entry): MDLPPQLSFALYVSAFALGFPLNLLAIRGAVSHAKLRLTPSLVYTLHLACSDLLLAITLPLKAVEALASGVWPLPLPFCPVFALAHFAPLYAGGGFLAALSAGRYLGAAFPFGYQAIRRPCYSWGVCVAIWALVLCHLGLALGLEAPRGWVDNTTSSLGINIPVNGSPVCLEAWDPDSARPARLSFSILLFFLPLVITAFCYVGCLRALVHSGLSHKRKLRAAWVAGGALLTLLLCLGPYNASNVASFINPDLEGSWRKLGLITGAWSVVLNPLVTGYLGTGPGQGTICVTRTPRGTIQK
Free fatty acid receptor 1 (Rattus norvegicus, UniProt Q8K3T4), sequence (Q8K3T4 whole entry): as above
Bile salt export pump, sequence (O95342 whole entry): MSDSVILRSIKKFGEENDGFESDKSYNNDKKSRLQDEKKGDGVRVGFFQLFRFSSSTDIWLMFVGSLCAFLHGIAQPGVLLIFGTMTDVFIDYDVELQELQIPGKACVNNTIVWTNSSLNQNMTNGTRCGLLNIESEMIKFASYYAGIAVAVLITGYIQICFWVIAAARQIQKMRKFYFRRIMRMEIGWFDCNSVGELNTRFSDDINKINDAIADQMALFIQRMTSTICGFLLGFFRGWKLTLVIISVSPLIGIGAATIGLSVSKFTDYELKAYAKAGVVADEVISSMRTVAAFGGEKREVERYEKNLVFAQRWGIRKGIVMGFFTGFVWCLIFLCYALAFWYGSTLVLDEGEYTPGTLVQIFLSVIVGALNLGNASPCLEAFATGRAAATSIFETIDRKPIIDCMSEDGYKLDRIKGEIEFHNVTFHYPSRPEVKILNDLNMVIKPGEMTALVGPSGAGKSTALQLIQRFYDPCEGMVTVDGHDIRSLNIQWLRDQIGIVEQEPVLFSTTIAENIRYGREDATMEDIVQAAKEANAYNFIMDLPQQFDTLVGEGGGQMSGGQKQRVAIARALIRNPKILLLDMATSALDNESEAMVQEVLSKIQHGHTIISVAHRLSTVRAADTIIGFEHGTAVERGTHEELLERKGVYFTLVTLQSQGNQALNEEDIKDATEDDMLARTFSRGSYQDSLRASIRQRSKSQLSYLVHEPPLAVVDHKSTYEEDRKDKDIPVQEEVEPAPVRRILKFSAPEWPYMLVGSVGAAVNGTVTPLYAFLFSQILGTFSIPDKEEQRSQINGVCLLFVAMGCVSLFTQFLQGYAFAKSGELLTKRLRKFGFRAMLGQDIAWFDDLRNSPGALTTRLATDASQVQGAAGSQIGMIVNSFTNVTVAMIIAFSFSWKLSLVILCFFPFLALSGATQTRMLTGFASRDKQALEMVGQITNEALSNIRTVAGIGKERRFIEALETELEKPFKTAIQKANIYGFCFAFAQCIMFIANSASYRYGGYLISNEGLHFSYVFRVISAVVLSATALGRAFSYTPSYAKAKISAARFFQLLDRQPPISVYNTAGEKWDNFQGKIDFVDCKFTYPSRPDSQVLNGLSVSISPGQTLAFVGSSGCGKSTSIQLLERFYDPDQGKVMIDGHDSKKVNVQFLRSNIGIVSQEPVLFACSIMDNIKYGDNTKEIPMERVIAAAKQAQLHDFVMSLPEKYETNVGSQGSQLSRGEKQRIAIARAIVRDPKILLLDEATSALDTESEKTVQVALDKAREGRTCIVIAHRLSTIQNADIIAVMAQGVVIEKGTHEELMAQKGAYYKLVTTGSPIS

Structure (SMILES): COc1cc(-c2ccc([C@@H]3CCc4ccc([C@H](C5CC5)[C@H](C)C(=O)[O-])cc4O3)c(F)c2)ccn1.[Na+]
- Tmax [1]: 1 to 2 h
- EC50 [2]: 35 nM
- half-life [3]: 10 h
- Cp [4]: 2.2 µM
- clearance [5]: 0.72 mL/min/kg
- EC50 [6]: 0.49 nM
- Activity [7]: Non-Toxic
- inhibition in vivo at 30 mg/kg [8]: 114%
- AUC at 24 h [9]: 2310 µM·h
- bioavailability [10]: 81%
- fraction unbound [11]: 0.00071
- half-life [12]: 6.9 h
- CLint scaled [13]: 126 mL/min/kg
- Activity [14]: Dose-dependent effect
- AUC at 24 h [15]: 7350 µM·h
- EC50 [16]: > 10000 nM
- max activation [17]: > 370%
- Tmax [18]: 1 to 2 h
- IC50 [19]: 3500 nM
- Cp [20]: 7.7 µM
- inhibition in vivo at 0.3 mg/kg [21]: 63%
- minimal effective dose [22]: 10 mg/kg
- logD at 100 µM [23]: 2.51
- Activity [24]: Non-Toxic
- Activity [25]: Non-Toxic
- max activation [26]: > 179%
- EC50 [27]: 0.8 nM
- inhibition in vivo at 3 mg/kg [28]: 108%
- Drug metabolism [29]: Metabolite_Notdetected
- CLint scaled [30]: 102 mL/min/kg
- Cp [31]: 0.9 µM
- clearance [32]: 1.6 mL/min/kg
- Activity [33]: 72%
- Cmax [34]: 545 µM
- half-life [35]: 3.7 h
- Vd [36]: 0.48 L/kg
- Cp [37]: 4.9 µM
